# From patent US9764001B2, “Target for diagnosis and treatment of diabetes and cardiovascular diseases” (The Regents of the University of California, priority 2012, dated 2017)
# Entries after “also recorded” stand apart in the source; their conditions may differ. Read-outs that look alike come from different tables or passages of the source.
# B1: human FKN: human fractalkine used on isolated human islets (100 or 400 ng/ml) (protein, UniProt P78423 25-397, looked up)
# Fractalkine: QHHGVTKCNITCSKMTSKIPVALLIHYQQNQASCGKRAIILETRQHRLFCADPKEQWVKDAMQHLDRQAAALTRNGGTFEKQIGEVKPRTTPAAGGMDESVVLEPEATGESSSLEPTPSSQEAQRALGTSPELPTGVTGSSGTRLPPTPKAQDGGPVGTELFRVPPVSTAATWQSSAPHQPGPSLWAEAKTSEAPSTQDPSTQASTASSPAPEENAPSEGQRVWGQGQSPRPENSLEREEMGPVPAHTDAFQDWGPGSMAHVSVVPVSSEGTPSREPVASGSWTPKAEEPIHATMDPQRLGVLITPVPDAQAATRRQAVGLLAFLGLLFCLGVAMFTYQSLQGCPRKMAGEMAEGLRYIPRSCGSNSYVLVPV
# What was measured:
# primary mouse islets = experiment: Static GSIS test using primary mouse islets; assay type: cell-based; conditions: FKN 100 ng/ml; PTX 250 ng/ml, Wortmannin 10 μM, PD98059 50 μM
# Procedure: (FIGS. 6A-1 to 6A-4) GSIS test using primary mouse islets with or without pertussis toxin (PTX; 250 ng/ml), Wortmannin (Wort; 10 μM), or PD98059 (50 μM), in the presence or absence of FKN (100 ng/ml). Mean+/−SEM, n=6 per group.
# Isolated mouse islets were cultured overnight in mouse islet media (DMEM containing 1 g/L glucose, 10% v/v FBS, 0.1% v/v Penicillin/Streptomycin).
# Min6 cells [1] = experiment: Intracellular calcium level measurement (fura-2) in Min6 cells; assay type: cell-based, mouse
# Procedure: (FIGS. 6C to 6I) Intracellular calcium level in Min6 mouse beta cells in the presence or absence of glucose (FIG. 6C, with glucose; FIG. 6D, without glucose), nimodipine (10 μM) (FIG. 6E), control antibody (FIG. 6F), anti-CX3CR1 neutralizing antibody (FIG. 6G), PTX (250 ng/ml) (FIG. 6H), or U0126 (10 μM) (FIG. 6I). Mean+/−SEM.
# (FIGS. 15A-1 to 15B-3) Intracellular calcium level in Min6 cells. Min6 cells were incubated in 2.8 mM glucose media with or without U0126 (10 μM) for 30 minutes, and then subjected to intracellular calcium measurement in the presence or absence of arginine (10 mM) and/or high glucose (16.7 mM) challenge. (FIGS. 15A-1 to 15A-3) Intracellular calcium level with arginine treatment. (FIGS. 15B-1 to 15B-3) Intracellular calcium level with arginine plus high glucose (16.7 mM) treatment. Area under the curve for first 90 (FIG. 15B-1) or 60 (FIG. 15B-2) seconds was graphed in FIG. 15B-3.
# The Cytoplasmic free calcium ion concentration in Min6 cells was measured by fura-2 fluorescence ratio digital imaging. Briefly, Min6 cells, grown on coverslips, were loaded with 5 μM fura-2 AM [dissolved in 0.01% Pluronic F-127 plus 0.1% DMSO in KRB] at room temperature for 60 min and then washed in fresh KRB for 30 min. The coverslips with Min6 cells were mounted in a perfusion chamber on a Nikon microscope stage.
# Min6 cells [2] = experiment: GSIS test using Min6 cells; assay type: cell-based, mouse; conditions: for glucose- and arginine plus glucose-stimulated insulin secretion: U0126 10 μM, arginine 10 mM, glucose 16.7 mM
# Procedure: (FIG. 6B) GSIS test using Min6 cells with or without FKN (100 ng/ml) or U0126 (10 μM). Mean+/−SEM.
# Min6 cells were incubated in 2.8 mM glucose media with or without U0126 (10 μM) for 30 minutes, and then subjected to intracellular calcium measurement in the presence or absence of arginine (10 mM) and/or high glucose (16.7 mM) challenge.
# Min6 cells [3] = experiment: Palmitate-induced ICER-1 and beta cell gene expression in Min6 cells (quantitative realtime RT-PCR); assay type: cell-based, mouse; conditions: palmitate 0.4 mM, FKN 100 ng/ml, U0126 10 μM, 48 h
# Procedure: Min6 cells were incubated with palmitate (Pal; 0.4 mM) in the presence or absence of FKN (100 ng/ml) or U0126 (10 μM). 48 h later, cells were harvested and subjected to quantitative realtime RT-PCR.
# Min6 cells [4] = experiment: ERK phosphorylation western blot in Min6 cells; assay type: cell-based, mouse; conditions: PTX 250 ng/ml pre-treatment 15 min
# Procedure: FIG. 14. FKN stimulates ERK phosphorylation in a PTX-sensitive manner (related to FIGS. 6A-1 to 6Q-4). Min6 cells were pre-treated with DMSO (control), U0126 (10 μM), or PTX (250 ng/ml) for 15 min, and then incubated with or without FKN (100 ng) for 15 min. Cells were harvested and subjected to western blot.
# human islets = experiment: Static GSIS studies using human islets; assay type: cell-based
molecule,measurement,setting,value
COc1cccc(-c2cc(=O)c3ccccc3o2)c1N [PD98059],effect of inhibitor on FKN-stimulated insulin secretion,primary mouse islets,inhibited
N#CC(=C(/N)Sc1ccccc1N)/C(C#N)=C(\N)Sc1ccccc1N [U0126],arginine plus glucose-stimulated intracellular calcium increase,Min6 cells [1],attenuated; also recorded: reduces
same,effect on FKN-induced intracellular calcium increase,Min6 cells [1],blocked
same,effect on FKN potentiation of glucose and GLP1-induced insulin secretion,"Min6 cells [2]; FIG. 6B: U0126 10 μM, FKN 100 ng/ml",suppressed
same,glucose- and arginine plus glucose-stimulated insulin secretion,Min6 cells [2],reduces
same,glucose- and arginine plus glucose-stimulated insulin secretion,Min6 cells [2]; listed as MEK inhibitor,attenuated
same,"effect of MEK inhibitor on FKN effects on ICER-1, NeuroD, PDX-1 and Glut2 expression",Min6 cells [3],abolished
pertussis toxin,effect on FKN-induced intracellular calcium increase,"Min6 cells [1]; PTX 250 ng/ml, U0126 10 μM, anti-CX3CR1 antibody vs control antibody",blocked
same,sensitivity of FKN-stimulated ERK phosphorylation to inhibitor,Min6 cells [4],PTX-sensitive
same,effect of inhibitor on FKN-stimulated insulin secretion,primary mouse islets,inhibited
B1,increase in GSIS,human islets; at the maximal concentration (100 or 400 ng/ml tested),65%
same,GSIS dose response,human islets; human FKN 100 or 400 ng/ml,dose responsive increase
